Results as given in patent US9655889B2, “Inhibitors of human immunodeficiency virus replication” (priority 2013, dated 2017).

Tested on: recombinant NL-Rluc virus
Test: Inhibition of HIV replication (NL-RLuc virus luciferase assay in MT-2 cells)
Type: cell-based
Details: Human immunodeficiency virus 1, MT2, 120 h

SMILES | EC50 [µM]
C=CCOC1(C)CCN(c2c([C@H](OC(C)(C)C)C(=O)O)c(C)cc3nc(NS(=O)(=O)Cc4ccc(F)cc4)cn23)CC1 [Example 8, (S)-2-(5-(4-(Allyloxy)-4-methylpiperidin-1-yl)-2((4-fluorophenyl)methylsulfonamido)-7-methylimidazo[1,2-a]pyridin-6-yl)-2-(tert-butoxy)acetic acid] | 3.3
Cc1cc2nc(-c3nnc(Cc4ccccc4)o3)cn2c(N2CCC(C)(C)CC2)c1[C@H](OC(C)(C)C)C(=O)O [Example 5, (S)-2-(2-(5-Benzyl-1,3,4-oxadiazol-2-yl)-5-(4,4-dimethylpiperidin-1-yl)-7-methylimidazo[1,2-a]pyridin-6-yl)-2-(tert-butoxy)acetic acid] | 0.008
Cc1cc2nc(-c3nc(Cc4ccccc4)no3)cn2c(N2CCC(C)(C)CC2)c1[C@H](OC(C)(C)C)C(=O)O [Example 4, (S)-2-(2-(3-Benzyl-1,2,4-oxadiazol-5-yl)-5-(4,4-dimethylpiperidin-1yl)-7-methylimidazo[1,2-a]pyridin-6-yl)-2-(tert-butoxy)acetic acid] | 0.003
C=CCOC1(C)CCN(c2c([C@H](OC(C)(C)C)C(=O)O)c(C)cc3nc(NS(=O)(=O)c4ccc(F)cc4)cn23)CC1 [Example 9, (S)-2-(5-(4-(Allyloxy)-4-methylpiperidin-1-yl)-2-(4-fluorophenylsulfonamido)-7-methylimidazo[1,2-a]pyridin-6-yl)-2-(tert-butoxy)acetic acid] | 6.03
Cc1cc2nc(-c3ncc(Cc4ccc(F)cc4)s3)cn2c(N2CCC(C)(C)CC2)c1[C@H](OC(C)(C)C)C(=O)O [Example 3, (S)-2-(tert-Butoxy)-2-(5-(4,4-dimethylpiperidin-1-yl)-2-(5-(4-fluorobenzyl)thiazol-2-yl)-7-methylimidazo[1,2-a]pyridin-6-yl)acetic acid] | 0.021
Cc1cc(CNC(=O)c2cn3c(N4CCC(C)(C)CC4)c([C@H](OC(C)(C)C)C(=O)O)c(C)cc3n2)ccc1F [Example 1, (S)-2-(tert-Butoxy)-2-(5-(4,4-dimethylpiperidin-1-yl)-2-((4-fluoro-3-methylbenzyl)carbamoyl)-7-methylimidazo[1,2-a]pyridin-6-yl)acetic acid] | 0.008
Cc1cc2nc(-c3ncc(Cc4ccc(F)cc4)o3)cn2c(N2CCC(C)(C)CC2)c1[C@H](OC(C)(C)C)C(=O)O [Example 2, (S)-2-(tert-Butoxy)-2-(5-(4,4-dimethylpiperidin-1-yl)-2-(5-(4-fluorobenzyl)oxazol-2-yl)-7-methylimidazo[1,2-a]pyridin-6-yl)acetic acid] | 0.002
Cc1cc2nc(-c3nc(Cl)c(Cc4ccc(F)cc4)[nH]3)cn2c(N2CCC(C)(C)CC2)c1[C@H](OC(C)(C)C)C(=O)O [Example 6, (S)-2-(tert-Butoxy)-2-(2-(4-chloro-5-(4-fluorobenzyl)-1H-imidazol-2-yl)-5-(4,4-dimethylpiperidin-1-yl)-7-methylimidazo[1,2-a]pyridin-6)acetic acid] | 0.013
Cc1cc2nc(-c3ncc(Cc4ccc(F)cc4)[nH]3)cn2c(N2CCC(C)(C)CC2)c1[C@H](OC(C)(C)C)C(=O)O [Example 7, (S)-2-(tert-Butoxy)-2-(5-(4,4-dimethylpiperidin-1-yl)-2-(5-(4-fluorobenzyl)-1H-imidazol-2-yl)-7-methylimidazo[1,2-a]pyridin-6-yl)acetic acid] | 0.034
